Reference: US9234025B2, “Extracellular allosteric inhibitor binding domain from a tyrosine kinase receptor” (SANOFI, priority 2009, dated 2016)

Experiments:
[1] = test system: cognate receptor of >100 distinct ligands; experiment: SPA selectivity, >100 distinct ligands to their cognate receptor; format: binding; settings: ligands with related structural homology or entirely different chemical composition
FGFR2^∂23-Y328D = FGFR2^∂23-Y328D (Homo sapiens, UniProt P21802, Y328D); experiment: ITC, FGFR2 Y328D mutant; format: binding; parameters: FGFR2^∂23 (consisting of domain D2 and 3); made in house
FGFR2^∂23-Y328D, sequence (P21802 148-366 Y328D limits assumed): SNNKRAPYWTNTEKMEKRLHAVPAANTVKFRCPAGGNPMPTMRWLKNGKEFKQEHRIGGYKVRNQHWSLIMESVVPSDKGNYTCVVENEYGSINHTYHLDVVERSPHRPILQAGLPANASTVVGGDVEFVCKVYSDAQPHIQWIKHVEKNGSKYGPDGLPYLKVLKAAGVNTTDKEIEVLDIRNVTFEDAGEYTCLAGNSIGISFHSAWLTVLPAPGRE
Procedure: All calorimetric experiments were performed at 30° C. with a VP-ITC titration calorimeter (MicroCal Inc., Northampton, Mass.) as previously described^45. Titrations involved the addition of 10 μL aliquots of 1.25 mM SSR via a rotating stirrer-syringe to the solution cell containing 1.407 mL of the 10-20 μM interacting protein (i.e. FGFR2^∂123, FGFR2^∂23 and its described mutants and subdomains, FGFR3^∂123, FGF1, FGF2 and Follistatin (as negative control) at 4 min intervals. A constant stirring speed of 300 rpm was maintained and data were fitted to the standard noninteracting one site model supplied by MicroCal, with n fixed as 1.0. All measurements were performed in 10 mM HEPES pH7.2, 150 mM NaCl, and proteins were purified as previously described (Pellegrini et al., 2000). Mutagenesis was performed using the ‘site directed mutagenesis kit’ (Stratagene).
We next explored whether SSR bound to amino acid residues that form part of the orthosteric site in D3 or to an alternative allosteric site. Initially, we used the molecular docking algorithms of the software packages MOLEGRO, Autodock and YASARA and available crystallographic data. […] We also analyzed the FTIR spectrum of the aforementioned mutated FGFR2 fragments.

COc1c(C)c(C(=O)c2ccc(N)c(C(=O)[O-])c2)n2ccccc12.[Na+] [SSR]
binding of >100 distinct ligands to their cognate receptor [1]: not inhibiting
binding to FGFR2^∂23-Y328D (FGFR2^∂23-Y328D): failed to bind
